Laboratory results as given in ChEMBL document CHEMBL1157879.
Calls of active or inactive are those of the source. The calls are words filed in the database; no cut-off is given here.

What was measured:
[1] = target: Lysosomal alpha-glucosidase (Homo sapiens) (UniProt P10253); test: Activation of purified human recombinant acid alpha-glucosidase using resorufin alpha-D-glucopyranoside as substrate at 100 uM after 45 mins relative to basal
[2] = target: T1, Alpha-galactosidase A (Homo sapiens) (UniProt P06280); test: Activation of purified alpha-galactosidase A using 4-methylumbelliferyl-alpha-D-galactoside as substrate after 45 mins relative to basal
T1 sequence (whole entry): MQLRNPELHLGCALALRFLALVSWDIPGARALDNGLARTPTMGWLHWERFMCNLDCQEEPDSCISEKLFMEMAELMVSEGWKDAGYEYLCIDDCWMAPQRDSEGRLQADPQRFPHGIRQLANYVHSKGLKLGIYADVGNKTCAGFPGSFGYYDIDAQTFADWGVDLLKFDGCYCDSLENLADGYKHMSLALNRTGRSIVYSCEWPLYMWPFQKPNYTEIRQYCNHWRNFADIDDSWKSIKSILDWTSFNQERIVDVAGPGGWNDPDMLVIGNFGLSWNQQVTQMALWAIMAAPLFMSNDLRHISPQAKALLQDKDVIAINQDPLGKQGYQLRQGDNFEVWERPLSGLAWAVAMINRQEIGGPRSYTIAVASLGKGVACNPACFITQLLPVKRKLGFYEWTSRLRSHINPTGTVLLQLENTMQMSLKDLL

[3] = target: Lysosomal alpha-glucosidase (Homo sapiens) (UniProt P10253); test: Activation of purified human recombinant acid alpha-glucosidase using glycogen as substrate up to 100 uM after 45 mins
[4] = target: Lysosomal alpha-glucosidase (Homo sapiens) (UniProt P10253); test: Activation of purified human recombinant acid alpha-glucosidase using 4-methylumbelliferyl-alpha-D-glucopyranoside as substrate after 45 mins relative to basal
[5] = target: Lysosomal alpha-glucosidase (Homo sapiens) (UniProt P10253); test: Activation of purified acid alpha-glucosidase in human spleen homogenates using resorufin alpha-D-glucopyranoside as substrate after 45 mins relative to basal
[6] = target: Lysosomal alpha-glucosidase (Homo sapiens) (UniProt P10253); test: Activation of purified human recombinant acid alpha-glucosidase using resorufin alpha-D-glucopyranoside as substrate after 45 mins relative to basal
[7] = target: Lysosomal alpha-glucosidase (Homo sapiens) (UniProt P10253); test: Activation of purified acid alpha-glucosidase in human spleen homogenates using 4-methylumbelliferyl-alpha-D-glucopyranoside as substrate after 45 mins relative to basal
[8] = target: Lysosomal alpha-glucosidase (Homo sapiens) (UniProt P10253); test: Activation of purified acid alpha-glucosidase in human spleen homogenates using resorufin alpha-D-glucopyranoside as substrate at 10 uM after 45 mins relative to basal

Row | Compound | Activity [1] | also measured
1 | COc1ccc(C#Cc2c[nH]c(=O)c3cncnc23)cc1OC | inactive | –
2 | CCCN1CNc2c(c(=O)[nH]c(=S)n2CCc2c(OC)cccc2OC)C1 | 227% | –
3 | CCCN1CNc2c(c(=O)[nH]c(=S)n2CCc2c(C)cccc2C)C1 | 112% | –
4 | COc1ccc(CCn2c3c(c(=O)[nH]c2=O)C(NC(=O)c2cccs2)(C(F)(F)F)C(=O)N3)cc1OC (stereo unspecified) | 64.2% | –
5 | COc1ccc(CCn2c3c(c(=O)[nH]c2=S)CN(C)CN3)cc1OC | 282% | –
6 | CCCN1CNc2c(c(=O)[nH]c(=S)n2CC(C)(C)C)C1 | inactive | –
7 | CCCN1CNc2c(c(=O)[nH]c(=S)n2CCc2ccccc2C)C1 | 136% | –
8 | CCCN1CNc2c(c(=O)[nH]c(=S)n2CCc2cccc(Cl)c2Cl)C1 | 346% | Activity [2]: inactive; Activity [3]: inactive; Activity [4]: Dose-dependent effect
9 | CCCN1CNc2c(c(=O)[nH]c(=S)n2CCCc2ccccc2)C1 | 166% | –
10 | CCCN1CNc2c(c(=O)[nH]c(=S)n2CCc2cccc(C)c2)C1 | 295% | –
11 | CCCN1CNc2c(c(=O)[nH]c(=S)n2CCc2ccccc2Cl)C1 | 311% | –
12 | COc1ccc(C#Cc2cnc(Cl)c3cncnc23)cc1OC | inactive | –
13 | CCCN1CNc2c(c(=O)[nH]c(=S)n2CCc2cc(C)cc(C)c2)C1 | 218% | –
14 | CCCN1CNc2c(c(=O)[nH]c(=S)n2CCc2ccc(C)c(C)c2)C1 | 338% | –
15 | CCCN1CNc2c(c(=O)[nH]c(=S)n2CCc2ccsc2)C1 | 192% | –
16 | O=c1[nH]cc(CCc2ccccc2)c2ncncc12 | inactive | –
17 | CCCN1CNc2c(c(=O)[nH]c(=S)n2CCc2cc(C)ccc2C)C1 | 245% | –
18 | COc1ccc(CCn2c(=S)[nH]c(=O)c3c(C)cc(C)nc32)cc1OC | inactive | –
19 | CCCN1CNc2c(c(=O)[nH]c(=S)n2CCc2cccc(OC)c2)C1 | 302% | –

Row | Compound | Activity [1] | also measured
20 | CCCN1CNc2c(c(=O)[nH]c(=S)n2CCc2cccc(C)c2C)C1 | 300% | –
21 | CCCN1CNc2c(c(=O)[nH]c(=S)n2CCc2c(Cl)cccc2Cl)C1 | 332% | Activity [2]: inactive; Activity [3]: inactive; Activity [4]: Dose-dependent effect
22 | CCCN1CNc2c(c(=O)[nH]c(=S)n2CCc2cccc(OC)c2OC)C1 | 262% | –
23 | COc1ccc(CCn2c(=S)[nH]c(=O)c3nccnc32)cc1OC | inactive | –
24 | CCCN1CNc2c(c(=O)[nH]c(=S)n2CCc2ccccc2OC)C1 | 243% | –
25 | CCCN1CNc2c(c(=O)[nH]c(=S)n2CCc2cc(OC)ccc2OC)C1 | 327% | –
26 | CCCN1CNc2c(c(=O)[nH]c(=O)n2CCc2ccc(OC)c(OC)c2)C1 | 297% | –
27 | CCCN1CNc2c(c(=O)[nH]c(=S)n2CCc2ccc(OC)cc2)C1 | 309% | –
28 | CCCN1CNc2c(c(=O)[nH]c(=S)n2CCc2cccs2)C1 | 221% | –
29 | CCCN1CNc2c(c(=O)[nH]c(=S)n2CCc2ccc3c(c2)OCCO3)C1 | 328% | –
30 | COc1ccc(CCn2c3c(c(=O)[nH]c2=S)CN(Cc2ccccc2)CN3)cc1OC | 335% | –
31 | COc1ccc(CCn2c(=S)[nH]c(=O)c3nc[nH]c32)cc1OC | inactive | –
32 | Clc1ncc(C#Cc2ccccc2)c2ncncc12 | inactive | –
33 | CCCN1CNc2c(c(=O)[nH]c(=S)n2CCc2ccc(C)cc2)C1 | 300% | –
34 | COc1ccc(CCc2c[nH]c(=O)c3cncnc23)cc1OC | inactive | –
35 | CCCN1CNc2c(c(=O)[nH]c(=S)n2CCc2ccccc2)C1 | 142% | –
36 | CCCN1CNc2c(c(=O)[nH]c(=S)n2CCc2ccc(Cl)cc2)C1 | 120% | –
37 | CCCN1CNc2c(c(=O)[nH]c(=S)n2CCc2cc(Cl)cc(Cl)c2)C1 | 316% | –
38 | CCCN1CNc2c(c(=O)[nH]c(=S)n2CCC)C1 | inactive | –

Row | Compound | Activity [1] | also measured
39 | CCCN1CNc2c(c(=O)[nH]c(=S)n2CCc2ccc(OCC)c(OCC)c2)C1 | 306% | –
40 | CCCCn1c(N)c(NCC)c(=O)[nH]c1=O | inactive | –
41 | COc1ccc(CCn2c(N)cc(=O)[nH]c2=S)cc1OC | 32.1% | –
42 | CCCN1CNc2c(c(=O)[nH]c(=S)n2CCc2ccc(C)cc2C)C1 | 323% | –
43 | CCCN1CNc2c(c(=O)[nH]c(=S)n2Cc2ccc(OCC)c(OCC)c2)C1 | 365% | Activity [2]: inactive; Activity [3]: inactive; Activity [4]: Dose-dependent effect
44 | COc1ccc(C(=O)NC2(C(F)(F)F)C(=O)Nc3c2c(=O)[nH]c(=O)n3CCc2ccc(OC)c(OC)c2)cc1 (stereo unspecified) | 121% | –
45 | CCCN1CNc2c(c(=O)[nH]c(=S)n2CC(C)C)C1 | inactive | –
46 | COc1ccc(CCn2c3c(c(=O)[nH]c2=S)CN(CC(C)C)CN3)cc1OC | 338% | Activity [3]: inactive
47 | CCCN1CNc2c(c(=O)[nH]c(=S)n2CCc2ccc(Cl)c(Cl)c2)C1 | 88.8% | –
48 | CCCN1CNc2c(c(=O)[nH]c(=S)n2CCc2ccc(OC)c(OC)c2)C1 | 356% | Activity [5]: Dose-dependent effect; Activity [2]: inactive; Activity [6]: Dose-dependent effect; Activity [7]: Dose-dependent effect; Activity [3]: inactive; fold change (FC) [8]: 1.5; Activity [4]: Dose-dependent effect
49 | O=c1[nH]cc(C#Cc2ccccc2)c2ncncc12 | inactive | –
50 | COc1ccc(CCn2c3c(c(=O)[nH]c2=S)CN(c2ccccc2)CN3)cc1OC | 275% | –
51 | CCCN1CNc2c(c(=O)[nH]c(=S)n2CCc2cc(Cl)ccc2Cl)C1 | 325% | –
52 | CCCN1CNc2c(c(=O)[nH]c(=S)n2CCc2cccc(Cl)c2)C1 | 197% | –
53 | CCCN1CNc2c(c(=O)[nH]c(=S)n2CCc2ccc(Cl)cc2Cl)C1 | 321% | –
54 | COc1ccc(CCn2c3c(c(=O)[nH]c2=S)CN(C(C)C)CN3)cc1OC | 234% | Activity [2]: inactive; Activity [4]: Dose-dependent effect
55 | CCCN1CNc2c(c(=O)[nH]c(=S)n2CCc2ccccn2)C1 | 30.6% | –
56 | CCCN1CNc2c(c(=O)[nH]c(=S)n2CCc2ccc(OC)cc2OC)C1 | 308% | –
57 | CCCN1CNc2c(c(=O)[nH]c(=S)n2CCc2cc(OC)cc(OC)c2)C1 | 332% | –
